In patent US20230061432A1, “NEW TECHNOLOGY TO CONJUGATE THE TACCALONOLIDE MICROTUBULE STABILIZERS WITH LINKERS/PAYLOADS” (priority 2019, published 2023):

Legend:
HeLa cells = assay: sulforhodamine B (SRB) antiproliferative assay; assay type: cell-based, human; conditions: Homo sapiens, HeLa; Table 5; read-out: GI50 in HeLa
Excerpt: HCC1806 (CRL-2335) and HCC1937 (CRL-2336) human triple-negative breast cancer cells, HeLa (CCL-2) cervical cancer cells and SK-OV-3 (HTB-77) ovarian cancer cells were obtained from ATCC (Manassas, Va.) and validated by STR profiling (Genetica). SK-OV-3 cells stably overexpressing Pgp by adenoviral-mediated expression of MDR1 were obtained from Dr. Susan Kane and subcloned by limiting dilution to isolate the single-cell clones utilized in these studies as SK-OV-3-MDR-1-6/6 (Risinger, A. L. et al. (2008) Cancer Res. 68, 8881-8888). A single-cell clone from transfection of HeLa cells with βIII-tubulin, designated wild type βIII, was constructed and obtained from Dr. Richard Luduena (Risinger, A. L. et al. (2008) Cancer Res. 68, 8881-8888). HCC1806 and HCC1937 cells were cultured in RPMI 1640 media (Corning) with 10% FBS (Cellgro) and 50 μg/mL gentamicin (Gibco). HeLa, […] expressing HeLa, SK-OV-3 and SK-OV-3/MDR-1-6/6 cells were grown in BME media with Earle's salts (Gibco) with 10% FBS, 1× final 1% GlutaMax™ Supplement (Gibco), and […] gentamicin. The use of HeLa cells allows for the direct comparison of the in vitro potency as compared to other compounds of this class, which have been predominantly reported in this line and compound potencies are consistent among three additional cancer cell lines. HeLa cells were also used for ectopic expression of tubulin mutants due to the high degree of transfectability of this cell line. Cells were tested for mycoplasma contamination using the Mycoplasma Detection Kit-Quick Test (Cat: B39032, Lot: JW004).
The sulforhodamine B (SRB) assay was utilized to examine the antiproliferative and cytotoxic effects of the compounds (Skehan, P. et al. (1990) J. Natl. Cancer Inst. 82, 1107-1112; Vichai and Kirtikara (2006) Nat. Protoc. 1, 1112-1116). Approximately 2,000 cells per well (for SK-OV-3, HeLa and βIII-tubulin expressing HeLa) or 4,000 cells per well (for HCC1806 and HCC1937) were seeded in 96-well plates. For each biological replicate, cells were treated in triplicate with each concentration of compound or vehicle control for 48 h in a final volume of 200 μL. The plates were fixed with 10% trichloroacetic acid for protein precipitation of adherent cells and then washed with distilled water. 100 μL of SRB dye, which binds protein stoichiometrically, was added and then unbound dye removed with 1% acetic acid followed by the addition of 200 μL 10 mM Tris to solubilize the dye, which was quantified by absorbance at 560 nm. The percent growth of treated cells relative to the density at the time of drug addiction was calculated as compared to vehicle treated cells.

[1] = unprotected form; Mottram et al. 2006; cited from earlier work

## CC(=O)O[C@H]1[C@H]2[C@@H]([C@@H](O)[C@@H](NC(=O)CNC(=O)c3ccc4c(c3)C(=O)OC43c4ccc(OC(=O)C(C)(C)C)cc4Oc4cc(OC(=O)C(C)(C)C)ccc43)[C@H]3C[C@@H]4O[C@@H]4[C@H](OC(C)=O)[C@]23C)[C@@H]2[C@@H](O)[C@@H]3[C@H]([C@H](C)[C@H]4O[C@]45OC(=O)[C@@](C)(O)[C@]35C)[C@@]2(C)[C@H]1OC(C)=O [164E]
HeLa cells
  GI50: 0.74 µM

## O=C(O)c1ccccc1-c1c2cc(F)c(=O)cc-2oc2cc(O)c(F)cc12 [Oregon Green, Oregon green]
[1]
  pKa: 4.8

## CC(=O)O[C@H]1[C@H]2[C@@H]([C@@H](O)[C@@H](NC(=O)CCCCCCn3cc(COc4ccc5c(c4)Oc4cc(O)ccc4C54OC(=O)c5ccccc54)nn3)[C@H]3C[C@@H]4O[C@@H]4[C@H](OC(C)=O)[C@]23C)[C@@H]2[C@@H](O)[C@@H]3[C@H]([C@H](C)[C@H]4O[C@]45OC(=O)[C@@](C)(O)[C@]35C)[C@@]2(C)[C@H]1OC(C)=O (some centres unmarked) [158F]
HeLa cells
  GI50: 6 µM

## CC(=O)O[C@H]1[C@H]2[C@@H]([C@@H](O)[C@@H](NC(=O)CCCn3cc(CNC(=O)CCCC[C@@H]4SC[C@@H]5NC(=O)N[C@@H]54)nn3)[C@H]3C[C@@H]4O[C@@H]4[C@H](OC(C)=O)[C@]23C)[C@@H]2[C@@H](O)[C@@H]3[C@H]([C@H](C)[C@H]4O[C@]45OC(=O)[C@@](C)(O)[C@]35C)[C@@]2(C)[C@H]1OC(C)=O [154C]
HeLa cells
  GI50: > 10 µM

## CC(=O)Oc1ccc2c(c1)Oc1cc(OC(C)=O)ccc1C21OC(=O)c2cc(C(=O)NCCC(=O)N[C@@H]3[C@H](O)[C@H]4[C@@H]5[C@@H](O)[C@@H]6[C@H]([C@H](C)[C@H]7O[C@]78OC(=O)[C@@](C)(O)[C@]68C)[C@@]5(C)[C@@H](OC(C)=O)[C@@H](OC(C)=O)[C@@H]4[C@]4(C)[C@@H]3C[C@@H]3O[C@@H]3[C@@H]4OC(C)=O)ccc21 [162C]
HeLa cells
  GI50: 10 µM

## CC(=O)O[C@H]1[C@H]2[C@@H]([C@@H](O)[C@@H](NC(=O)CCCn3cc(CCC(=O)NCCCC[C@@H](NC(=O)[C@H](Cc4ccc(O)cc4)NC(=O)[C@H](CO)NC(=O)[C@H](Cc4c[nH]c5ccccc45)NC(=O)[C@H](Cc4c[nH]cn4)NC(=O)[C@@H]4CCC(=O)N4)C(=O)N[C@@H](CC(C)C)C(=O)N[C@@H](CCCNC(=N)N)C(=O)N4CCC[C@H]4C(=O)NCC(N)=O)nn3)[C@H]3C[C@@H]4O[C@@H]4[C@H](OC(C)=O)[C@]23C)[C@@H]2[C@@H](O)[C@@H]3[C@H]([C@H](C)[C@H]4O[C@]45OC(=O)[C@@](C)(O)[C@]35C)[C@@]2(C)[C@H]1OC(C)=O [171B]
HeLa cells
  GI50: 2.6 µM

## CC(=O)O[C@H]1[C@H]2[C@@H]([C@@H](O)[C@@H](NC(=O)CCNC(=O)c3ccc4c(c3)C(=O)OC43c4ccc(OC(=O)C(C)(C)C)cc4Oc4cc(OC(=O)C(C)(C)C)ccc43)[C@H]3C[C@@H]4O[C@@H]4[C@H](OC(C)=O)[C@]23C)[C@@H]2[C@@H](O)[C@@H]3[C@H]([C@H](C)[C@H]4O[C@]45OC(=O)[C@@](C)(O)[C@]35C)[C@@]2(C)[C@H]1OC(C)=O [163D]
HeLa cells
  GI50: 2 µM

## CC(=O)O[C@H]1[C@H]2C([C@@H](O)[C@@H](NC(=O)c3ccc4c(c3)C(=O)OC43c4ccc(OC(=O)C(C)(C)C)cc4Oc4cc(OC(=O)C(C)(C)C)ccc43)[C@H]3C[C@@H]4O[C@@H]4[C@H](OC(C)=O)[C@@]32C)[C@@H]2[C@@H](O)[C@@H]3[C@H]([C@H](C)[C@H]4O[C@]45OC(=O)[C@@](C)(O)[C@]35C)[C@@]2(C)[C@H]1OC(C)=O (some centres unmarked) [164B]
HeLa cells
  GI50: 0.031 µM

## O=C1OC2(c3ccc(O)cc3Oc3cc(O)ccc32)c2ccccc21 [fluorescein]
[1]
  pKa: 6.5

## CC(=O)O[C@H]1[C@H]2[C@@H]([C@@H](O)[C@@H](NC(=O)CCCN=[N+]=[N-])[C@H]3C[C@@H]4O[C@@H]4[C@H](OC(C)=O)[C@]23C)[C@@H]2[C@@H](O)[C@@H]3[C@H]([C@H](C)[C@H]4O[C@]45OC(=O)[C@@](C)(O)[C@]35C)[C@@]2(C)[C@H]1OC(C)=O [152E]
HeLa cells
  GI50: 0.09 µM

## CC(=O)O[C@H]1[C@H]2[C@@H]([C@@H](O)[C@@H](NC(=O)CCCCCCn3cc(COc4cc5c(cc4F)C4(OC(=O)c6ccccc64)c4cc(F)c(O)cc4O5)nn3)[C@H]3C[C@@H]4O[C@@H]4[C@H](OC(C)=O)[C@]23C)[C@@H]2[C@@H](O)[C@@H]3[C@H]([C@H](C)[C@H]4O[C@]45OC(=O)[C@@](C)(O)[C@]35C)[C@@]2(C)[C@H]1OC(C)=O (some centres unmarked) [158E]
HeLa cells
  GI50: > 10 µM

## CC(=O)O[C@H]1[C@H]2[C@@H]([C@@H](O)[C@H](NC(=O)CCCN=[N+]=[N-])[C@H]3C[C@@H]4O[C@@H]4[C@H](OC(C)=O)[C@]23C)[C@@H]2[C@@H](O)[C@@H]3[C@H]([C@H](C)[C@H]4O[C@]45OC(=O)[C@@](C)(O)[C@]35C)[C@@]2(C)[C@H]1OC(C)=O [152D]
HeLa cells
  GI50: 0.12 µM

## CC(=O)Oc1cc2c(cc1F)C1(OC(=O)c3cc(C(=O)NCCC(=O)N[C@@H]4[C@H](O)[C@H]5[C@@H]6[C@@H](O)[C@@H]7[C@H]([C@H](C)[C@H]8O[C@]89OC(=O)[C@@](C)(O)[C@]79C)[C@@]6(C)[C@@H](OC(C)=O)[C@@H](OC(C)=O)[C@@H]5[C@]5(C)[C@@H]4C[C@@H]4O[C@@H]4[C@@H]5OC(C)=O)ccc31)c1cc(F)c(OC(C)=O)cc1O2 [163E]
HeLa cells
  GI50: > 10 µM

## CC(=O)O[C@H]1[C@H]2[C@@H]([C@@H](O)[C@@H](NC(=O)CCCn3cc(COc4cc5c(cc4F)C4(OC(=O)c6ccccc64)c4cc(F)c(O)cc4O5)nn3)[C@H]3C[C@@H]4O[C@@H]4[C@H](OC(C)=O)[C@]23C)[C@@H]2[C@@H](O)[C@@H]3[C@H]([C@H](C)[C@H]4O[C@]45OC(=O)[C@@](C)(O)[C@]35C)[C@@]2(C)[C@H]1OC(C)=O (some centres unmarked) [155F]
HeLa cells
  GI50: 3.7 µM

## CC(=O)O[C@H]1[C@H]2[C@@H]([C@@H](O)[C@@H](NC(=O)CCCn3cc(CNC(=O)c4ccc(-c5c6cc(F)c(=O)cc-6oc6cc(O)c(F)cc56)c(C(=O)O)c4)nn3)[C@H]3C[C@@H]4O[C@@H]4[C@H](OC(C)=O)[C@]23C)[C@@H]2[C@@H](O)[C@@H]3[C@H]([C@H](C)[C@H]4O[C@]45OC(=O)[C@@](C)(O)[C@]35C)[C@@]2(C)[C@H]1OC(C)=O [154B]
HeLa cells
  GI50: > 10 µM

## CC(=O)O[C@H]1[C@H]2[C@@H]([C@@H](O)[C@@H](NC(=O)CCCn3cc(COc4ccc5c(c4)Oc4cc(O)ccc4C54OC(=O)c5ccccc54)nn3)[C@H]3C[C@@H]4O[C@@H]4[C@H](OC(C)=O)[C@]23C)[C@@H]2[C@@H](O)[C@@H]3[C@H]([C@H](C)[C@H]4O[C@]45OC(=O)[C@@](C)(O)[C@]35C)[C@@]2(C)[C@H]1OC(C)=O (some centres unmarked) [155G]
HeLa cells
  GI50: 8.4 µM

## CC(=O)Oc1cc2c(cc1F)C1(OC(=O)c3cc(C(=O)NCc4cn(CCCC(=O)N[C@@H]5[C@H](O)[C@H]6[C@@H]7[C@@H](O)[C@@H]8[C@H]([C@H](C)[C@H]9O[C@]9%10OC(=O)[C@@](C)(O)[C@]8%10C)[C@@]7(C)[C@@H](OC(C)=O)[C@@H](OC(C)=O)[C@@H]6[C@]6(C)[C@@H]5C[C@@H]5O[C@@H]5[C@@H]6OC(C)=O)nn4)ccc31)c1cc(F)c(OC(C)=O)cc1O2 [154J]
HeLa cells
  GI50: > 10 µM
